From patent publication US20080103209A1, “Compounds And Methods For Treating Non-Inflammatory Pain Using Ppar Alpha Agonists” (The Regents of The University of California, priority 2004, published 2008)

Assays:
mice = assay: Carrageenan-evoked paw edema (acute); format: in vivo, mouse; details: wild-type C57Bl6J; PEA 10 mg-kg^−1 i.p., WY-14643 20 mg-kg^−1 i.p.
From the text: In addition to rapid-onset analgesia, PEA also exerts prolonged anti-inflammatory effects [Benvenuti, et al., Boll Soc It Biol Sper 44, 809-813 (1968); Lambert, et al., Curr Med. Chem. 9, 663-74 (2002)], which are associated with the down-regulation of pro-inflammatory proteins such as nitric oxide synthase (NOS) [Costa, et al., Br J Pharmacol 137, 413-20. (2002)]. Two models of acute inflammation were used to examine whether such effects are mediated through PPARα. First, paw edema was induced in C57B16J wild-type and PPARα^−/− mice by local injection of the irritant, carrageenan [Cirino, et al., Eur J Pharmacol 166, 505-10 (1989)]. […] Next, ear edema was produced in CD1 mice by topical administration of the phorbol ester, 12-O-tetradecanoylphorbol-13-acetate (TPA) [Sheu, et al., J Invest Dermatol., 94-101. (2002)]. […] In a parallel set of experiments, the effects of PEA (20 μg) on TPA-induced edema were tested in C57B16J wild-type and PPARα^−/− mice. […] Together, these findings indicate that PEA reduces acute nociception and inflammation through activation of PPARα.
An inflammatory response was initiated by injecting 2% (w v^−1, 20 μl) λ-carrageenan in sterile saline into mice hind paws using a 27-gauge needle. Drugs were administered 30 minutes before carrageenan (i.p.). Paw edema was measured using a plethysmometer (Ugo Basile, Italy).

PPARγ = target: T1, PPARγ (Homo sapiens, UniProt P37231); assay: PPARγ transactivation assay; format: cell-based; details: concentrations as high as 20 μM
T1 construct: expressed in transfected cells
T1 sequence (P37231 1-505): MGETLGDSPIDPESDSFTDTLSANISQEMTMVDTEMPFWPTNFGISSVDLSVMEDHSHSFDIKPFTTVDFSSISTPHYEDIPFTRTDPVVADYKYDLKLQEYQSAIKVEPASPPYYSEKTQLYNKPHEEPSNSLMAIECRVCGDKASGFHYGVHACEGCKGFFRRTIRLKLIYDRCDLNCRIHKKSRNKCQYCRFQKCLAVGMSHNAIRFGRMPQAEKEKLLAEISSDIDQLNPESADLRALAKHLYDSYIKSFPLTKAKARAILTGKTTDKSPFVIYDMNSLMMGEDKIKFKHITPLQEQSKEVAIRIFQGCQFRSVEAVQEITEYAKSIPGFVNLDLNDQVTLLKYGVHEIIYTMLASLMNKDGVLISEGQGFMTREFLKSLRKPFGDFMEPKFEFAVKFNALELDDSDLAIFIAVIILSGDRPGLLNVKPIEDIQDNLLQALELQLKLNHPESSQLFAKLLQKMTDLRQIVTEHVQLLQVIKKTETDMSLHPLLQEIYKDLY
Method: Transactivation assays were performed as previously described [Fu et al., Nature 425:90-93 (2003)].

[1] = test system: PKA-IIα regulatory subunit phosphorylation on Ser^96; assay: Immunoblot of lumbar spinal cord extracts, phosphorylated PKA regulatory subunit; format: in vivo, mouse; details: neuropathic mice, PEA 30 mg-kg^−1 s.c. once daily for two weeks
Method: Opiate analgesics have a high liability to produce tolerance, a progressive loss of pharmacological activity caused by repeated drug administrations (Waldhoer et al., Annu Rev Biochem, 73, 953 (2004)). To assess whether tolerance develops to the antihyperalgesic effects of PPARα agonists, PEA (30 mg-kg^−1, s.c.) was administered once a day for 14 consecutive days from the time of surgery, measuring mechanical and thermal hyperalgesia at day 7 and 14.
Immunoblot analysis. Lumbar spinal cord tissue was weighed, homogenized in Tris-HCl (20 mM, pH 7.5), 10 mM NaF, 150 mM NaCl, 1% Nonidet P-40, 1 mM PMSF, 1 mM Na3VO4, leupeptin and trypsin inhibitor (10 μg/ml). After 1 h, the tissue lysates were subjected to centrifugation ay 100,000×g for 15 min at 4° C. Protein concentrations were estimated using a Bio-Rad protein assay and bovine serum albumin as a standard. Equal amounts of protein (20 μg) were dissolved in Laemmli sample buffer, boiled for 5 min, subjected to sodium dodecyl sulphate-polyacrylamide gel electrophoresis (8% polyacrylamide) and transferred onto nitrocellulose membranes at 240 mA for 40 min at room temperature. […] The films were scanned and densitometrically analysed with a model GS-700 imaging densitometer.

[2] = Tissue PEA levels after subcutaneous PEA (LC/MS); format: in vivo, mouse; details: daily PEA injections s.c.
Method: LC/MS analysis. PEA was measured by high-performance liquid chromatography/tandem mass spectrometry. Tissue samples were weighed, cut into 1 mm^2 pieces, and incubated with 1 mL of acetonitrile at 4° C. overnight. Samples of the incubates (100 μl) were transferred to 96-well plates, diluted with 250 μL of acetonitrile containing [H2]-ethanolamine-OEA as an internal standard, and injected into the HPLC. HPLC analyses were carried out on a Waters 2790 Alliance system (Milford, Mass.) using a Phenomenex Synergi Polar-RP column (2 mm×150 mm, 4μ; Torrance, Calif.) and a mobile phase of 0.1% formic acid in water (solvent “A”) and 0.1% formic acid in acetonitrile (solvent “B”). Run conditions were isocratic (25% A and 75% B), at a flow rate of 0.3 mL min^−1, column temperature of 45° C., and a run time of 3 minutes. The HPLC system was interfaced with a Micromass Ultima (Beverly, Mass.) tandem mass spectrometer. The samples were analyzed using an electrospray probe in the positive ionization mode with the cone voltage set at 40 V and capillary at 3.2 kV. The source and desolvation temperature settings were 130° C. and 500° C., respectively. The voltage of the CID chamber was set at −17 eV. Multiple reaction monitoring was used for the detection of PEA as [M+H]^+ (m/z 300>62) and the standard as [M+H]^+ (m/z 330>66).

PPARγ activation (PPARγ): did not activate | brain PEA levels vs vehicle-treated mice [2]: significantly higher
Structure (SMILES): CCCCCCCCCCCCCCCC(=O)NCCO [PEA, palmitoylethanolamide]
carrageenan paw edema in wild-type mice (mice): decreased edema | phosphorylation of PKA-IIα regulatory subunit at Ser^96 [1]: reduced
